In PubChem BioAssay (NCI) one finds TGI and GI50 data, which are given here for 14 compounds.

Test systems include SF-295 CNS; EKVX NSCLC; MDA-MB-435; HT29 colon; HL-60(TB) leukemia; NCI-H460 lung; SK-MEL-5 melanoma; HOP-62 NSCLC; ACHN renal; KM12 colon.
Assay in all cases: inhibition of tumour cell growth, NCI panel, 48 h

Structures are written as SMILES.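 Values below derive from 48-hour exposures of cells grown in 96-well plates, with endpoints linearly interpolated between the two concentrations bracketing the appropriate inhibition level. GI50 marks 50% less growth. TGI marks complete inhibition of growth.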

In the case of `CO/N=C1\CC(NC(=O)C(F)(F)F)c2ccsc21` (centres undefined), the TGI in the experiment on SF-295 CNS, in the experiment with EKVX NSCLC, in the experiment on MDA-MB-435, with HT29 colon, in the experiment on HL-60(TB) leukemia and with NCI-H460 lung was over 100 µM each time. Also, the TGI in the experiment with SK-MEL-5 melanoma and with HOP-62 NSCLC was over 100 µM in each case.

In the case of `Cn1c2ccccc2n2c3ncccc3c(=O)c(C#N)c12`, the TGI in the experiment on SF-295 CNS is 48.4 µM; in the experiment with ACHN renal, 11.7 µM; in the experiment with EKVX NSCLC, over 100 µM; in the experiment with KM12 colon, over 100 µM; with MDA-MB-435 it was over 100 µM; in the experiment with HT29 colon, over 100 µM. Moreover, the TGI in the experiment on HL-60(TB) leukemia is over 100 µM; with NCI-H460 lung it was over 40.7 µM; with SK-MEL-5 melanoma it was 21.5 µM; with HOP-62 NSCLC, 29.5 µM.

Regarding `S=C(Cc1ccc2c(c1)Sc1ccccc1O2)N1CCOCC1`, the TGI in the experiment on SF-295 CNS, in the experiment with ACHN renal, in the experiment with EKVX NSCLC, in the experiment on KM12 colon, in the experiment on MDA-MB-435 and in the experiment with HT29 colon was over 100 µM in each case. Besides, the TGI in the experiment on HL-60(TB) leukemia, in the experiment on NCI-H460 lung and in the experiment with HOP-62 NSCLC was over 100 µM each time.

With `CC(C)NC(=O)OCc1c(COC(=O)NC(C)C)n(C)c2c1ccc1sccc12`, the TGI with SF-295 CNS is over 87.7 µM; with ACHN renal, over 63.8 µM; in the experiment on EKVX NSCLC it was 34.1 µM; in the experiment on KM12 colon, 31.2 µM; in the experiment with MDA-MB-435, 35.1 µM; with HT29 colon it was over 82.6 µM. In addition, the TGI in the experiment on HL-60(TB) leukemia is over 100 µM; in the experiment on NCI-H460 lung, 27.2 µM; with SK-MEL-5 melanoma, 26.3 µM; with HOP-62 NSCLC, 46.4 µM.

Consider `COC(=O)c1ccccc1C1CN=NC12Cc1c(ccc(C)c1C)C2=O` (centres undefined), for which the TGI in the experiment on SF-295 CNS, in the experiment with ACHN renal, in the experiment on EKVX NSCLC, in the experiment on KM12 colon, with MDA-MB-435 and in the experiment on HT29 colon was over 100 µM throughout. The TGI in the experiment with HL-60(TB) leukemia, with NCI-H460 lung, in the experiment with SK-MEL-5 melanoma and with HOP-62 NSCLC was over 100 µM in each case.

For the compound `O=C(COc1ccc(OCC(=O)N/N=C/c2ccc(-c3ccc(Cl)cc3Cl)o2)c(Cl)c1)N/N=C/c1ccc(-c2ccc(Cl)cc2Cl)o1`, the TGI in the experiment with SF-295 CNS is over 100 µM; with ACHN renal it was over 100 µM; with EKVX NSCLC, 89.5 µM; with KM12 colon it was over 100 µM; in the experiment on MDA-MB-435, over 100 µM; with HT29 colon, over 100 µM. The TGI with HL-60(TB) leukemia is 70.6 µM; with NCI-H460 lung, over 100 µM; in the experiment on SK-MEL-5 melanoma, over 100 µM; with HOP-62 NSCLC, over 100 µM.

Regarding `CN(O)C(=O)/C=C/c1ccc(OCc2cccc(Cl)c2)cc1`, the TGI in the experiment on SF-295 CNS is over 100 µM; in the experiment on ACHN renal it was 29.9 µM; with EKVX NSCLC, over 100 µM; in the experiment with KM12 colon, 41.3 µM; with MDA-MB-435, over 100 µM; in the experiment with HT29 colon, 34.9 µM. Further, the TGI was 52 µM in the experiment with HL-60(TB) leukemia, 43.3 µM in the experiment with NCI-H460 lung, 78.2 µM in the experiment with SK-MEL-5 melanoma and over 100 µM in the experiment on HOP-62 NSCLC.

As to `O=C(c1ccco1)N(C(=O)N1CCCCC1)c1ccccc1`, the TGI in the experiment on ACHN renal, in the experiment on EKVX NSCLC, in the experiment on KM12 colon, in the experiment on MDA-MB-435, in the experiment on HT29 colon and with HL-60(TB) leukemia was over 100 µM throughout. This compound also came in with a TGI in the experiment with SK-MEL-5 melanoma of over 100 µM.

On to `Cc1ccc2c(c1C)C(=O)C1(Cc3cc4c(cc3C1=O)CCC4)C2` (centres undefined), for which the TGI in the experiment with SF-295 CNS, with ACHN renal, in the experiment on EKVX NSCLC, with KM12 colon, with MDA-MB-435 and in the experiment with HT29 colon was over 100 µM in each case. Further, the TGI in the experiment on HL-60(TB) leukemia, in the experiment on NCI-H460 lung and with SK-MEL-5 melanoma was over 100 µM throughout.

`CCCCCCCCCCCCCCCCCCOc1ccccc1CC(=O)NCC[N+]1(C)CCOCC1`: the GI50 with SF-295 CNS was 4.99 µM; in the experiment on ACHN renal, 16 µM; with EKVX NSCLC, 8.62 µM; with MDA-MB-435, 7.85 µM; in the experiment on HT29 colon it was 2.05 µM; in the experiment on NCI-H460 lung, 3.31 µM. Also, the GI50 in the experiment on SK-MEL-5 melanoma was 3 µM; in the experiment with HOP-62 NSCLC, 4.01 µM. In addition, the TGI in the experiment with SF-295 CNS amounted to 49.2 µM; with ACHN renal, 44.6 µM; with EKVX NSCLC, 56.2 µM; in the experiment on MDA-MB-435, 32.9 µM; in the experiment with HT29 colon, 5.19 µM; in the experiment with NCI-H460 lung it was 17.4 µM. The TGI with SK-MEL-5 melanoma is 16.1 µM; with HOP-62 NSCLC, 26.8 µM.

Regarding `COc1ccc2c(c1)c1c(n2CCN2CCCCC2)-c2cccc(OC)c2CC1`, the TGI in the experiment on SF-295 CNS was over 100 µM; with ACHN renal, 43 µM; in the experiment on EKVX NSCLC, 42 µM; with KM12 colon, 28.8 µM; with MDA-MB-435, 31.5 µM; in the experiment on HT29 colon, 17.6 µM. The results for the TGI in the experiment on NCI-H460 lung, in the experiment with SK-MEL-5 melanoma and with HOP-62 NSCLC were 55.9 µM, 45.5 µM and 32.4 µM, respectively.

For `CCOC(=O)c1c(N2CCCC2)[nH]c(=O)c(C(c2ccc(OC)cc2)c2c(O)c(C(=O)OCC)c(N3CCCC3)[nH]c2=O)c1O`, the TGI in the experiment with SF-295 CNS, in the experiment with ACHN renal, with EKVX NSCLC, with KM12 colon, in the experiment on MDA-MB-435 and with NCI-H460 lung was over 100 µM throughout. The TGI with SK-MEL-5 melanoma and with HOP-62 NSCLC was over 100 µM in each case.

For the compound `CC(C)Oc1cccc(N2C(n3ccnc3)=Nc3ccncc3S2(=O)=O)c1`, the TGI in the experiment on SF-295 CNS is over 100 µM; in the experiment with ACHN renal, 21.6 µM; in the experiment on EKVX NSCLC, 30.4 µM; in the experiment with KM12 colon it was 49.5 µM; in the experiment on MDA-MB-435, 32.7 µM; with HT29 colon, 34.9 µM. Moreover, the TGI stood at 37.4 µM in the experiment on NCI-H460 lung, 26.3 µM with SK-MEL-5 melanoma and 33.6 µM with HOP-62 NSCLC.

In the case of `O=C(/C=C/c1ccc(O)c(O)c1)OCCc1ccc2ccccc2c1`, the TGI was found to be 23.7 µM with SF-295 CNS; 15.1 µM in the experiment with ACHN renal; 28.7 µM in the experiment on EKVX NSCLC; 12.9 µM in the experiment on KM12 colon; 6.63 µM in the experiment with MDA-MB-435; 25.6 µM in the experiment on HT29 colon. The TGI in the experiment on NCI-H460 lung is 23.7 µM; with SK-MEL-5 melanoma, 13.2 µM; in the experiment with HOP-62 NSCLC it was 26.4 µM.
